Tests used:
[1] = test system: transplanted mice (hair follicles of haired mice transplanted into the back of nude mice); experiment: Hair shaft growth in nude mice transplanted with hair follicles of haired mice (Example 1); format: in vivo; conditions: for Hair shaft growth rate: topical 4 times per day
Protocol: Hair follicles (surgically prepared) of haired mice were transplanted into the back of nude mice (from Sankyo Labo Service Corporation, Inc.) to produce transplanted mice manipulated such that each hair can be distinguished and a plurality of hair cycles can be observed. First, a 50% ethanol aqueous solution (12.5 μl, not containing the agent) was applied to the transplanted mice 4 times per day during new hair growth in the first hair cycle to obtain reference data of a hair cycle. After the hair had shed following the end of the first hair cycle, a 50% ethanol aqueous solution (12.5 μl) containing a predetermined amount of the agent was applied to the mice 4 times per day to obtain data on effects of the agent. After the hair had shed following the end of the second hair cycle, a 50% ethanol aqueous solution (12.5 μl) containing the agent in the same amount as that in the second hair cycle was applied to the mice in a similar manner to the second hair cycle to obtain reproducibility data on effects of the agent. As the agent, D-chiro-inositol (from Wako Pure Chemical Industries Ltd.) and its stereoisomers as chiro-inositol, L-chiro-inositol (from Tokyo Chemical Industry Co., Ltd.), myo-inositol (from Wako Pure Chemical Industries Ltd.), allo-inositol (cis-1,2,3,4-trans-5,6-cyclohexaneheaxol) (from Tokyo Chemical Industry Co., Ltd.), epi-inositol (cis-1,2,3,4,5-trans-6-cyclohexanehexaol) (from Tokyo Chemical Industry Co., Ltd.), muco-inositol (cis-1,2,4,5-trans-3,6-cyclohexanehexaol) (from Tokyo Chemical Industry Co., Ltd.), and scyllo-inositol (cis-1,3,5-trans-2,4,6-cyclohexanehexaol) (from Tokyo Chemical Industry Co., Ltd.) were used. For each agent solution, the lengths of hair shafts were measured every 2 to 3 days, an average length of hair shafts that changed day by day was plotted as one dot at each time point in a graph, and a similar plotting was repeated for 3 to 4 mice. The results were shown in Tables 1 to 14 and FIGS. 1 to 14.

obese mice = conditions: insulin sensitivity increasing substances, PTL 2; cited from earlier work
[2] = test system: crab-eating macaque (Macaca fascicularis); experiment: New hair growth test in monkey (Example 4); format: in vivo; conditions: 1 wt % in 50% ethanol, once/day 150 μl, 8 weeks, sparse hair region of head; number of hair before application = 100%
Excerpt: A crab-eating macaque (Macaca fascicularis) is a monkey (class: Mammalia, order: Primates, family: Cercopithecidae, genus: Macaca) that has many similarities to humans, such as the morphology of the temporomandibular joint, and is frequently employed as a laboratory animal for morphological studies and medication studies due to its easy breeding and rearing. The crab-eating macaque is known for the replacement of the body hair in a six-month cycle in a year. Among aged female monkeys that had babies repeatedly and aged male monkeys of low social status, individuals with observed symptoms of hair thinning or sparse hair emerge with low frequency. […] In this Example, to an aged crab-eating macaque (19 years of age, male) having sparse body hair of the head, a test solution A in which D-chiro-inositol (from Wako Pure Chemical Industries Ltd.) was dissolved in 50% ethanol at a concentration of 1 wt % and a test solution B in which myo-inositol was dissolved in 50% ethanol at a concentration of 1 wt % were applied every day to about 4 cm^2-sparse hair regions (2 cm×2 cm) in both left and right sides across the median line of the head of the macaque. The application (once/day, 150 μl) was performed over 8 weeks, and 50% ethanol was applied as a negative control. At the end of 8 weeks, hair shafts in the applied regions were cut with hair clippers while leaving 2 to 3 mm from pores toward the outside of the body, and the total number of hair protruded from the pores in the applied regions was counted. A new hair growth rate was calculated as an increase rate in the number of hair at the end of 8 weeks, relative to the number of hair protruded from pores in the same regions before the application at the start of the test as 100%.

hair papilla cells = experiment: Hair papilla cell proliferation test by two-dimensional culture (Example 5); format: cell-based, C57BL/6N mouse; conditions: final concentration 0.1 wt %, cultured for 3 days; FIG. 18
Excerpt: Hair papilla cells transmit new hair growth signals to hair matrix cells via signaling substances to activate hair matrix cells, thereby controlling processes of new hair growth and hair elongation. Accordingly, the hair shaft growth promoting activity and the like of test substances can be evaluated from a proliferation rate of hair papilla cells. In this Example, the skin of the whisker region was taken from a C57BL/6N mouse and hair papillae were harvested from isolated whisker follicles under a stereo microscope. Six hair papillae were fixed to the bottom surface of a 60 mm-plastic petri dish (from Sumitomo Bakelite Co., Ltd.), and the primary culture was performed at 37° C. in the presence of 5% CO2 by using a hair papilla cell culture medium in which 2% FCS (fetal calf serum), 0.6% ITT (insulin-transferrin-triiodothyronine mixture), 1% BPE (bovine pituitary extract), and 0.6% Cyp (cyproterone solution) were added to a PCGM base medium. Afterwards, the medium was replaced every 2 to 3 days and subculturing was repeated about every two weeks. In this experiment, hair papilla cells at passage 3 or less were used. […] The number of cells after culturing for 3 days was counted by using a hemocytometer, and proliferation rates in test solution A and the test solution B were calculated relative to 100% for a proliferation rate in the negative control as 100%.

[3] = test system: hair papilla cell spheroids; experiment: Hair papilla cell proliferation test by three-dimensional culture (Example 6); format: cell-based, C57BL/6N mouse; conditions: final concentrations 0.05 wt %, 0.1 wt %, and 1 wt %, cultured for 3 days; FIG. 19
Protocol: In this Example, hair papilla cells prepared in a similar manner to Example 5 were seeded in a 96-well U-bottom microplate for cell culture (from Sumitomo Bakelite Co., Ltd.) at 6,000 cells/well and centrifuged with a plate centrifuge at room temperature and at a rotating speed of 1,000 rpm for 1 minute to yield three-dimensional hair papilla cell spheroids. The spheroids were cultured for 3 days by using each of test solutions A1 to A3 that were hair papilla cell culture media to which D-chiro-inositol dissolved in PBS was added at a final concentration of 0.05 wt %, 0.1 wt %, or 1 wt %; test solutions B1 to B3 that were hair papilla cell culture media to which myo-inositol dissolved in PBS was added at a final concentration of 0.05 wt %, 0.1 wt %, or 1 wt %; and a negative control that was a hair papilla cell culture medium to which PBS alone was added. The spheroids after culturing for 3 days were imaged by using a VHX2000 digital microscope (Keyence Corporation), and the area of the spheroids was calculated by using a digital microscope analysis tool. By calculating a spheroid area increase rate in the test solutions A1 to A3 and B1 to B3, relative to an area increase rate in the negative control as 100%, the proliferation of hair papilla cells in conditions further close to in vivo condition was quantified.

[4] = 5 wt % in 50% ethanol, second hair cycle
[5] = 5 wt % in 50% ethanol, third hair cycle (reproducibility)
[6] = 5 wt %, third hair cycle (reproducibility)
[7] = 1 wt % in 50% ethanol, second hair cycle
[8] = 1 wt % in 50% ethanol, third hair cycle (reproducibility)
[9] = 1 wt %, third hair cycle (reproducibility)

SMILES	Hair growth activity (hair shaft growth rate and maximum length vs reference data) ([1]; 5 wt %)	Hair shaft growth rate [1, 4]	Hair shaft growth rate [1, 5]	Hair shaft maximum length ([1]; 5 wt %, second hair cycle)	Hair shaft maximum length [1, 6]	Hair shaft growth rate [1, 7]	Hair shaft growth rate [1, 8]	Hair shaft maximum length ([1]; 1 wt %, second hair cycle)	Hair shaft maximum length [1, 9]	Hair growth activity (hair shaft growth rate and maximum length vs reference data) ([1]; 5 wt % or 1 wt %)	Effect on hair loss (obese mice)	New hair growth rate [2]	Hair papilla cell proliferation rate vs negative control (hair papilla cells)	Hair papilla cell spheroid area vs negative control [3]
OC1C(O)C(O)C(O)C(O)C1O [L-chiro-inositol]	hair growth activity was not confirmed	0.33 ± 0.08 mm/day	0.33 ± 0.13 mm/day	4.9 ± 0.7 mm	4.8 ± 0.8 mm									
OC1C(O)C(O)C(O)C(O)C1O (stereo not drawn) [allo-inositol, cis-1,2,3,4-trans-5,6-cyclohexaneheaxol]		0.43 ± 0.02 mm/day	0.40 ± 0.03 mm/day	5.5 ± 0.3 mm	5.5 ± 0.8 mm	0.37 ± 0.03 mm/day	0.40 ± 0.04 mm/day	5.0 ± 0.5 mm	5.2 ± 0.5 mm	hair growth activity was not confirmed				
OC1C(O)C(O)C(O)C(O)C1O (stereo not drawn) [epi-inositol, cis-1,2,3,4,5-trans-6-cyclohexanehexaol]		0.33 ± 0.09 mm/day	0.32 ± 0.09 mm/day	4.7 ± 0.6 mm	4.5 ± 0.6 mm	0.43 ± 0.06 mm/day	0.45 ± 0.09 mm/day	5.2 ± 0.3 mm	5.3 ± 0.4 mm	hair growth activity was not confirmed				
CN(C)C(=N)N=C(N)N [metformin]											prevented hair loss or slowed progress of hair loss			
OC1C(O)C(O)C(O)C(O)C1O (stereo not drawn) [muco-inositol, cis-1,2,4,5-trans-3,6-cyclohexanehexaol]	hair growth activity was not confirmed	0.35 ± 0.03 mm/day	0.36 ± 0.10 mm/day	4.9 ± 0.3 mm	5.1 ± 0.3 mm									
O[C@H]1[C@H](O)[C@@H](O)[C@H](O)[C@@H](O)[C@H]1O [myo-inositol, cis-1,2,3,5-trans-4,6-cyclohexanehexaol]		0.37 ± 0.05 mm/day	0.39 ± 0.06 mm/day	4.6 ± 0.5 mm	4.7 ± 0.5 mm	0.45 ± 0.03 mm/day	0.44 ± 0.08 mm/day	4.9 ± 0.5 mm	5.0 ± 0.5 mm	hair growth activity was not confirmed		107.1%	no significant difference was observed	no significant differences were observed
O[C@H]1[C@H](O)[C@@H](O)[C@H](O)[C@@H](O)[C@@H]1O [scyllo-inositol, cis-1,3,5-trans-2,4,6-cyclohexanehexaol]	hair growth activity was not confirmed	0.35 ± 0.09 mm/day	0.35 ± 0.09 mm/day	4.4 ± 0.3 mm	4.4 ± 0.5 mm									

From US11534377B2, “Hair growth agent” (KOBAYASHI PHARMACEUTICAL CO., LTD., priority 2016, dated 2022)
